Source: the NIST ThermoML archive (doi:10.1021/je200800f)
Numbers after ± are expanded uncertainties.

How the values were obtained:
[1] = DTA
[2] = Molar enthalpy of transition or fusion; conditions: Crystal; DSC

Normal melting temperature ([1]; Crystal) [°C]	Molar enthalpy of transition or fusion [2] [kcal/mol]	Normal melting temperature ([1]; Crystal 1) [°C]	SMILES
	9.11 ± 0.287	138 ± 2	CC(C)(CC(=O)O)C(=O)O [2,2-dimethyl-1,4-butanedioic acid]
119.4 ± 2	4.04 ± 0.167		CC(C(=O)O)C(C)C(=O)O (configuration not stated) [2,3-dimethyl-1,4-butanedioic acid]
	7.39 ± 0.287	85.5 ± 2	CC(CC(=O)O)CC(=O)O [3-methylpentanedioic acid]

More lines, now with the values behind:

SMILES	Normal melting temperature ([1]; Crystal) [°C]	Molar enthalpy of transition or fusion [2] [kcal/mol]	Normal melting temperature ([1]; Crystal 1) [°C]
O=C(O)CCCC(=O)O [1,5-pentanedioic acid]	96.0 ± 2	5.14 ± 0.215	
O=C(O)CCCCC(=O)O [1,6-hexanedioic acid]	153.2 ± 2	8.41 ± 0.382	
O=C(O)CCCCCC(=O)O [1,7-heptanedioic acid]	104.2 ± 2	6.88 ± 0.287	
